Experiment [1] concerns carrageenan-induced paw edema in BALB/c mice. The experiment is described as follows: Carrageenan-induced paw edema. It counts as in vivo. To be noted: 20 mg/kg i.p., 60 min before carrageenan; 4 hours after induction. On the procedure:
FIG. 1 is a graph showing the anti-inflammatory activity of Compounds 1-6 administered to mice intraperitoneally (i.p.) at 20 mg/kg, 1 hour before induction of paw edema (10-12 mice per group). The swelling of paws was measured 4 hours after induction, compared to controls and expressed as difference in paw thickness in mm (y-axis). The results were statistically evaluated by Student's t-test and statistical significance is indicated by one, two or three stars ([…]).
Acute edema was induced in the […] of BALB/c mice (10-12 mice/group) by injecting 0.02 ml of freshly prepared solution of 2% carrageenan (Sigma) under the plantar region of right hind paw (Tones et al., 2000). Carrageenan was injected 60 min after administration of the test compounds. The right paw received 0.02 ml of saline, which served as a control. The paw thickness was measured at 2, 4 and 24 hours after carrageenan challenge using a Mitutoyo engineer's micrometer. The difference between right and left pad was expressed as mean±SEM. Test compounds were injected intraperitoneally (i.p.) (20 mg/kg) in 0.5% Tween 80 in saline and vehicle control group received 0.5% Tween 80 in saline.
Compound 1 reduced paw edema by 33% and the reduction was statistically significant as determined by Student's t-test with […].

The target in experiment [2] is T1, VEGF binding to heparin (HS-GAG) (Homo sapiens, UniProt P15692).
T1 construct: purchased Research and Development Systems
T1 sequence (P15692 27-191 isoform P15692-4): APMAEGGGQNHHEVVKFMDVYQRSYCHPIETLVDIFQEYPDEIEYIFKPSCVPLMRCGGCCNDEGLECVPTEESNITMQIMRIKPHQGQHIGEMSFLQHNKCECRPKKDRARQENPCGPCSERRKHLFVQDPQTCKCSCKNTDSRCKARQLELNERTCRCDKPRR
Description: In vitro VEGF to HS-GAG binding assay (ELISA, heparin-BSA coated plate). The text has this: An in vitro assay was used to assess the ability of test compounds of general formulas I and II to inhibit the interaction of VEGF with HS-GAGs. The assay was designed to for determine the concentration required for 50% inhibition (IC-50) for each specific compound. The test compounds were purchased from Life Chemicals Ltd. (Kiev, Ukraine), and the GAG used was heparin (heparin grade I-A; Sigma) conjugated to bovine serum albumin (Sigma) and diluted 1:200 in phosphate-buffered saline (PBS; pH 7.3). The heparin was added to a 96-well polystyrene ELISA plate (NUNC; 0.1 ml per well) and incubated overnight at 4° C. Following the incubation, the plate was washed thoroughly, by immersion, with de-ionized water and then with PBS (pH 7.3) containing Tween 20 (Sigma, 0.05%). The ELISA plate was then blocked with BSA (ICN, 3%, 200 μl per well) for 1 hour at room temperature. Following blocking, the plate was washed with de-ionized water, and then twice with PBS (pH 7.3) containing Tween 20. Recombinant human VEGF (Research and Development Systems) dissolved in PBS supplemented with BSA (0.1%) was added to the ELISA plate. The test compounds were dissolved in DMSO (MERCK), diluted in PBS and added to the wells at concentrations ranging from 0.01 to 200 μM to obtain a final volume 100 μl per well, and incubated for 60 minutes at room temperature with shaking. Following incubation, the plate was washed with de-ionized water and PBS (pH 7.3) containing Tween 20. Anti-human VEGF (1:2000; Research and Development Systems) diluted in PBS supplemented with BSA (1%) was added to the ELISA plate (100 per well) and incubated for 60 minutes at room temperature with shaking. Following incubation, the plate was washed with de-ionized water and then with PBS (pH 7.3) containing Tween 20. Streptavidin-HRP (1:200; Research and Development Systems Cat. No. DY998) diluted in PBS supplemented with BSA (1%) was added to the ELISA plate (100 per well) and incubated for 20 minutes at room temperature with shaking. The plate was then washed with de-ionized water and twice with PBS (pH 7.3) containing Tween 20. The peroxidase substrate chromogen tetramethyl benzidine (TMB; Dako) was added (100 μl per well) to the ELISA plate and incubated at room temperature. After 15 minutes, ELISA Stop Solution (hydrochloric acid 1N, sulfuric acid 3N) was added (100 μl per well) to stop the peroxidase catalyzed colorimetric reaction. The Optical Density (OD) of the samples was measured at 450 nm using an ELISA plate reader (Dynatech MR5000). Data were analyzed with Graphpad Prism software and IC-50 values were determined.
Percent inhibition at 30 μM concentration is shown and for selected compounds IC-50 was established.

Experiment [3] deals with oxazolone-induced ear swelling in BALB/c mice. The experiment is described as follows: Delayed-type hypersensitivity (DTH), oxazolone mouse ear-swelling test. It counts as in vivo. On the procedure: FIG. 2 is a graph showing the anti-inflammatory activity of Compounds 1, 2, 4, 5, 6 administered to mice orally at 50 mg/kg in a model of delayed-type hypersensitivity (DTH) (11-13 mice per group). The results for dexamethasone (10 mg/kg i.p.), a steroid positive control, are also shown. The y-axis represents difference in ear thickness in mm compared to control. The results were statistically evaluated by Student's t-test and statistical significance is indicated by one, two or three stars ([…]).
BALB/c mice (Velaz, Prague, Czech Republic; 8 week-old; 10-15 animals per group) were sensitized by topical application of a 2% oxazolone (4-ethoxymethylene-2-phenyl-2-oxazolin-5-one; Sigma, St Louis, Mo.) solution in acetone/olive oil (4:1 vol/vol) to a shaved abdomen area (50 μl) and to each paw (5 μl)(Lange-Asschenfeldt et al., 2002). Topical oxazolone administration induces immunomodulatory activity. Five days after sensitization, right ears were challenged by topical application of 10 μl of a 1% oxazolone solution, whereas left ears were treated with vehicle alone. Test compounds were administered 1 hour prior to challenge. The extent of inflammation was measured 24 hours and 48 hours after challenge, using the mouse ear-swelling test. Animals were numbered (tail marking) and weighed and the thickness of both ears was recorded with a constant-loading dial micrometer (Mitutoyo, Tokyo). The unpaired Student t-test was used for statistical analyses. Test compounds were administered per os at 50 mg/kg as a suspension with 0.5% methylcellulose. The vehicle control group received the same volume of 0.5% methylcellulose.

pIC50: −log10 of the molar value.

In the case of `COc1cccc(OCC(=O)Nc2sc3c(c2-c2nc4ccccc4s2)CCN(C)C3)c1` [Compound 4, N-[3-(2-benzothiazolyl)-4,5,6,7-tetrahydro-6-methylthieno[2,3-c]pyridin-2-yl]-2-(3-methoxyphenoxy)acetamide], the “reduction of paw edema” value in experiment [1] amounted to 22.8%. Further, in experiment [2], the pIC50 was 5.74 and the inhibition at 30 µM was found to be 65%. The “inhibition of ear swelling (in words)” value in experiment [3] (DTH, FIG. 2, oral 50 mg/kg) is “significantly inhibited ear swelling”. For the same compound, in experiment [3] (per os 50 mg/kg, 1 hour prior to challenge, after 48 hours), the “reduction of ear swelling” value is 33.5%.
`CSc1ccc(CC(=O)Nc2sc3c(c2-c2nc4ccccc4s2)CCN(C)C3)cc1` [Compound 3, N-[3-(2-benzothiazolyl)-4,5,6,7-tetrahydro-6-methylthieno[2,3-c]pyridin-2-yl]-2-(4-methylthiophenyl)acetamide]: in experiment [1], the “reduction of paw edema” value is reported as 32.1%. For the same compound, testing at 30 µM in experiment [2] gave an inhibition of 60%.
Regarding `CCN1CCc2c(sc(NC(=O)c3ccccc3)c2-c2nc3ccccc3s2)C1` [Compound 9, N-[3-(2-benzothiazolyl)-4,5,6,7-tetrahydro-6-ethylthieno[2,3-c]pyridin-2-yl]-benzamide], in experiment [2], the pIC50 is 6.30 and the inhibition at 30 µM is 70%.
Consider `CC(=O)N1CCc2c(sc(NC(=O)c3ccc(C#N)cc3)c2-c2nc3ccccc3s2)C1` [Compound 37, N-[3-(2-benzothiazolyl)-4,5,6,7-tetrahydro-6-acetylthieno[2,3-c]pyridin-2-yl]-4-cyanobenzamide], for which, in experiment [2], the pIC50 is 6.46 and the inhibition at 30 µM amounted to 75%.
For `COC(=O)c1ccc(C(=O)Nc2sc3c(c2-c2nc4ccccc4s2)CCN(C(C)C)C3)cc1` [Compound 20], in experiment [2], the pIC50 was 6.62 and 30 µM produced 77% inhibition.
As for `CC(C)N1CCc2c(sc(NC(=O)C3CCCCC3)c2-c2nc3ccccc3s2)C1` [Compound 26, N-[3-(2-benzothiazolyl)-4,5,6,7-tetrahydro-6-(1-methylethyl)thieno[2,3-c]pyridin-2-yl]-cyclohexylcarboxamide], the inhibition at 30 µM in experiment [2] was determined as 36%.
In experiment [2], `CC(=O)c1ccc(C(=O)Nc2sc3c(c2-c2nc4ccccc4s2)CCN(Cc2ccccc2)C3)cc1` [Compound 8, N-[3-(2-benzothiazolyl)-4,5,6,7-tetrahydro-6-phenylmethylthieno[2,3-c]pyridin-2-yl]-4-acetylbenzamide] showed a pIC50 of 6.40 and an inhibition at 30 µM of 82%.
With `CN1CCc2c(sc(NC(=O)c3cccc(C(F)(F)F)c3)c2-c2nc3ccccc3s2)C1` [Compound 16, N-[3-(2-benzothiazolyl)-4,5,6,7-tetrahydro-6-methylthieno[2,3-c]pyridin-2-yl]-3-trifluoromethylbenzamide], the inhibition at 30 µM in experiment [2] worked out at 61%.
On the same count and under the same terms, under `O=C(Nc1sc2c(c1-c1nc3ccccc3s1)CCN(Cc1ccccc1)C2)C1COc2ccccc2O1` (stereo not drawn) [Compound 33, N-[3-(2-benzothiazolyl)-4,5,6,7-tetrahydro-6-phenylmethylthieno[2,3-c]pyridin-2-yl]-2,3-dihydro-1,4-benzodioxin-2-carboxamide] stands 50%.
In experiment [2], `CCN1CCc2c(sc(NC(=O)c3cc(OC)c(OC)c(OC)c3)c2-c2nc3ccccc3s2)C1` [Compound 14, N-[3-(2-benzothiazolyl)-4,5,6,7-tetrahydro-6-ethylthieno[2,3-c]pyridin-2-yl]-(3,4,5-trimethoxy)benzamide] showed a pIC50 of 6.70 and an inhibition at 30 µM of 73%.
For the compound `C[C@@H]1C[C@H]2[C@@H]3CCC4=CC(=O)C=C[C@]4(C)[C@@]3(F)[C@@H](O)C[C@]2(C)[C@@]1(O)C(=O)CO` [dexamethasone, reference compound], the “reduction in ear swelling” value in experiment [3] (dexamethasone positive control, i.p. (10 mg/kg per FIG. 2)) is on record as 46.5%.

Source of the values: patent US20100298370A1, “BENZOTHIAZOLYL THIENOPYRIDINE DERIVATIVES AND USES THEREOF” (priority 2006, published 2010).
